Bridge positions count the residues as written; N and C are the ends. Square brackets hold non-standard residues; d marks the D form. Peptide text beside a SMILES is read from it. d2Nal = N[C@H](Cc1ccc2ccccc2c1)C(=O)O
What was measured:
[1] = target: Somatostatin receptor type 4 (Homo sapiens, UniProt P31391)
[2] = target: Somatostatin receptor type 3 (Homo sapiens, UniProt P32745)
[3] = target: Somatostatin receptor type 2 (Homo sapiens, UniProt P30874)
[4] = target: Somatostatin receptor type 5 (Homo sapiens, UniProt P35346)
Chain of Somatostatin receptor type 5 (P35346 whole entry): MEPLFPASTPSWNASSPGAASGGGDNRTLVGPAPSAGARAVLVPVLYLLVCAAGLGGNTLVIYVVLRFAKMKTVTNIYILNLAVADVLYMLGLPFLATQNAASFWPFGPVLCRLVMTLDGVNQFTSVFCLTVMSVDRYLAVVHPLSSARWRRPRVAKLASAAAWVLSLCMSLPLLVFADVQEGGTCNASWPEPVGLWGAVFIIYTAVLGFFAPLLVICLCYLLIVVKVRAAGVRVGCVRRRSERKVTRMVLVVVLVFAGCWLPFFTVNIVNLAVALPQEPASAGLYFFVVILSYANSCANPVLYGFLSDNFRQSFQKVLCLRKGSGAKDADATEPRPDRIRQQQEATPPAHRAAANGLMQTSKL

Chain of Somatostatin receptor type 4 (P31391 whole entry): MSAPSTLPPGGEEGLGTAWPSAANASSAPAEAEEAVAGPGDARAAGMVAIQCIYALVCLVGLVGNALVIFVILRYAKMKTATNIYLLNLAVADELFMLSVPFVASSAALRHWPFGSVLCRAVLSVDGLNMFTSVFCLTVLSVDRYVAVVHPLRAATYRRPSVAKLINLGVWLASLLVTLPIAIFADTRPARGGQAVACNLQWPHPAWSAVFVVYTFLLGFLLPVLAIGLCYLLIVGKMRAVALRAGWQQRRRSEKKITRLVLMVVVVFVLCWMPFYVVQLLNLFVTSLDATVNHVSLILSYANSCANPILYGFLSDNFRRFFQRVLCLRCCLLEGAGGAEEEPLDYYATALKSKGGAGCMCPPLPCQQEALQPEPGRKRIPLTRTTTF
Chain of Somatostatin receptor type 3 (P32745 whole entry): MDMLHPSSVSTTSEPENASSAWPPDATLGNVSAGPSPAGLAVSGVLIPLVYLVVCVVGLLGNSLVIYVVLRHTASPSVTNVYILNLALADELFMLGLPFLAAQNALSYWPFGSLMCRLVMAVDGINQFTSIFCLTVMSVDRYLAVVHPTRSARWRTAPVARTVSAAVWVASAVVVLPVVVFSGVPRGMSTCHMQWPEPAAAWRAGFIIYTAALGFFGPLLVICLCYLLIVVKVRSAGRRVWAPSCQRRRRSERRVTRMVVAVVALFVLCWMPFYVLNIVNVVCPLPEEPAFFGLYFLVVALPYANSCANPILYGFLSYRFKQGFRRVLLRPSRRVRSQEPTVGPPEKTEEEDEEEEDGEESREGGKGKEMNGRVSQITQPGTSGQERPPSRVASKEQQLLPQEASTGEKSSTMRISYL
Chain of Somatostatin receptor type 2 (P30874 whole entry): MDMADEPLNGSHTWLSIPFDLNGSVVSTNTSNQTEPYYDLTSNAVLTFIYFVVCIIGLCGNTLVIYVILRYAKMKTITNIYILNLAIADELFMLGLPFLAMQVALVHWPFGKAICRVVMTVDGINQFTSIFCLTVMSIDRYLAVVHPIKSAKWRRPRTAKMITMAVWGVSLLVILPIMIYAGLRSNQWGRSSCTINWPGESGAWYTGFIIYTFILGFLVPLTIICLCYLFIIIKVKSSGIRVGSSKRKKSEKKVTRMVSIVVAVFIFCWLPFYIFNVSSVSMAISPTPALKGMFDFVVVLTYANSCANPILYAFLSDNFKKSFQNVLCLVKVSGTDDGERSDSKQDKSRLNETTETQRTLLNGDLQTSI

IC50 [1]	IC50 [3]	IC50 [4]	Compound	IC50 [2]
132 nM			C[C@@H](O)[C@H](NC(=O)[C@H](Cc1ccccc1)NC(=O)[C@@H](NC(=O)[C@H](CCCCN)NC(=O)[C@@H](Cc1c[nH]c2ccccc12)NC(=O)[C@H](Cc1ccccc1)NC(=O)[C@H](Cc1ccccc1)NC(=O)[C@H](N)Cc1ccccc1)[C@@H](C)O)C(N)=O [CAS_133073-82-2] (H-[dF]FF[dW]KTFT-NH2)	
234 nM	132 nM	12.1 nM	CC(C)[C@H](NC(=O)[C@H](CCCCN)NC(=O)[C@@H](Cc1c[nH]c2ccccc12)NC(=O)[C@H](Cc1ccc(O)cc1)NC(=O)[C@H](Cc1ccccc1)NC(=O)[C@H](N)Cc1ccccc1)C(=O)N[C@@H](Cc1ccccc1)C(=O)N[C@H](Cc1ccc2ccccc2c1)C(N)=O [CAS_150155-61-6] (H-[dF]FY[dW]KVF[d2Nal]-NH2)	177 nM
			CC(C)[C@@H]1NC(=O)[C@H](CCCCN)NC(=O)[C@@H](Cc2c[nH]c3ccccc23)NC(=O)[C@H](Cc2ccc(O)cc2)NC(=O)[C@@H](NC(=O)[C@H](N)Cc2ccc3ccccc3c2)CSSC[C@@H](C(=O)N[C@H](C(N)=O)[C@@H](C)O)NC1=O [3-(2-Naphtyl)-D-Ala-L-Cys(1)-L-Tyr-D-Trp-L-Lys-L-Val-L-Cys(1)-L-Thr-NH2]	107 nM
			CC[C@@H]1NC(=O)[C@H](CCCCN)NC(=O)[C@@H](Cc2c[nH]c3ccccc23)NC(=O)[C@H](Cc2ccc(O)cc2)NC(=O)[C@@H](NC(=O)[C@H](N)Cc2ccccc2)CSSC[C@@H](C(=O)N[C@H](C(N)=O)[C@@H](C)O)NC1=O [D-Phe-L-Cys(1)-L-Tyr-D-Trp-L-Lys-L-Abu-L-Cys(1)-L-Thr-NH2]	89 nM
	15.1 nM	0.37 nM	C[C@@H](O)[C@@H]1NC(=O)[C@H](CCCCN)NC(=O)[C@@H](Cc2c[nH]c3ccccc23)NC(=O)[C@H](Cc2ccccc2)NC(=O)[C@H](Cc2ccccc2)NC(=O)[C@H](N)CSSC[C@H](C(N)=O)NC(=O)[C@H](Cc2ccccc2)NC1=O (H-[dC]FF[dW]KTF[dC]-NH2; disulfide 1-8)	61.6 nM

Compound	IC50 [1]	IC50 [3]	IC50 [4]	IC50 [2]
CC[C@@H]1NC(=O)[C@H](CCCCN)NC(=O)[C@@H](Cc2c[nH]c3ccccc23)NC(=O)[C@H](Cc2ccc(O)cc2)NC(=O)[C@@H](NC(=O)[C@@H](Cc2ccccc2)NC(=O)CN2CCN(CCO)CC2)CSSC[C@@H](C(=O)N[C@H](C(N)=O)[C@@H](C)O)NC1=O [BIM-23190]	1000 nM			
